Measurements as given in US8183262B2, “Pyridine derivatives as mGluR2 antagonists” (Hoffmann-La Roche Inc., priority 2007, dated 2012).

SMILES | melting point [°C]
O=S(=O)(c1cccc(-c2cc(-c3nc(-c4ccc(C(F)(F)F)cc4)cc(C(F)(F)F)n3)ccn2)c1)N1CCC(O)C1 (racemic) [Example 407, (RS)-1-(3-{4-[4-Trifluoromethyl-6-(4-trifluoromethyl-phenyl)-pyrimidin-2-yl]-pyridin-2-yl}-benzenesulfonyl)-pyrrolidin-3-ol] | 234
FC(F)(F)c1ccc(-c2cc(C(F)(F)F)nc(-n3cccc3)n2)cc1 [Example 4, 2-Pyrrol-1-yl-4-trifluoromethyl-6-(4-trifluoromethyl-phenyl)-pyrimidine] | 120.5
FC(F)(F)c1cc(-c2ccc(Cl)cc2)nc(-n2cccc2)n1 [Example 6, 4-(4-Chloro-phenyl)-2-pyrrol-1-yl-6-trifluoromethyl-pyrimidine] | 128.5
FC(F)(F)c1cc(-c2ccc(Cl)cc2)nc(-n2cnc(-c3cccnc3)c2)n1 [Example 7, 4-(4-Chloro-phenyl)-2-(4-pyridin-3-yl-imidazol-1-yl)-6-trifluoromethyl-pyrimidine] | 228
Nc1ccc(-c2noc(-c3nc(-c4ccc(Cl)cc4)cc(C(F)(F)F)n3)n2)cn1 [Example 9, 5-{5-[4-(4-Chloro-phenyl)-6-trifluoromethyl-pyrimidin-2-yl]-[1,2,4]oxadiazol-3-yl}-pyridin-2-ylamine] | 211
Nc1cc(-c2noc(-c3nc(-c4ccc(C(F)(F)F)cc4)cc(C(F)(F)F)n3)n2)ccn1 [Example 12, 4-{5-[4-Trifluoromethyl-6-(4-trifluoromethyl-phenyl)-pyrimidin-2-yl]-[1,2,4]oxadiazol-3-yl}-pyridin-2-ylamine] | 223.5
Nc1ccc(-c2cn(-c3nc(-c4ccc(C(F)(F)F)cc4)cc(C(F)(F)F)n3)cn2)cn1 [Example 13, 5-{1-[4-Trifluoromethyl-6-(4-trifluoromethyl-phenyl)-pyrimidin-2-yl]-1H-imidazol-4-yl}-pyridin-2-ylamine] | 286
Nc1ccc(-c2cn(-c3nc(-c4ccc(Cl)cc4)cc(C(F)(F)F)n3)cn2)cn1 [Example 14, 5-{1-[4-(4-Chloro-phenyl)-6-trifluoromethyl-pyrimidin-2-yl]-1H-imidazol-4-yl}-pyridin-2-ylamine] | 254
NS(=O)(=O)c1ccc(-c2noc(-c3nc(-c4ccc(C(F)(F)F)cc4)cc(C(F)(F)F)n3)n2)cc1 [Example 15, 4-{5-[4-Trifluoromethyl-6-(4-trifluoromethyl-phenyl)-pyrimidin-2-yl]-[1,2,4]oxadiazol-3-yl}-benzenesulfonamide] | 302
NS(=O)(=O)c1cccc(-c2noc(-c3nc(-c4ccc(C(F)(F)F)cc4)cc(C(F)(F)F)n3)n2)c1 [Example 16, 3-{5-[4-Trifluoromethyl-6-(4-trifluoromethyl-phenyl)-pyrimidin-2-yl]-[1,2,4]oxadiazol-3-yl}-benzenesulfonamide] | 204
NS(=O)(=O)c1ccc(-c2noc(-c3nc(-c4ccc(Cl)cc4)cc(C(F)(F)F)n3)n2)cc1 [Example 17, 4-{5-[4-(4-Chloro-phenyl)-6-trifluoromethyl-pyrimidin-2-yl]-[1,2,4}oxadiazol-3-yl]-benzenesulfonamide] | 289.5
NS(=O)(=O)c1cccc(-c2noc(-c3nc(-c4ccc(Cl)cc4)cc(C(F)(F)F)n3)n2)c1 [Example 18, 3-{5-[4-(4-Chloro-phenyl)-6-trifluoromethyl-pyrimidin-2-yl]-[1,2,4}oxadiazol-3-yl]-benzenesulfonamide] | 231
Nc1ccc(-c2cnn(-c3nc(-c4ccc(C(F)(F)F)cc4)cc(C(F)(F)F)n3)c2)cn1 [Example 19, 5-{1-[4-Trifluoromethyl-6-(4-trifluoromethyl-phenyl)-pyrimidin-2-yl]-1H-pyrazol-4-yl}-pyridin-2-ylamine] | 206
Nc1ncc(-c2noc(-c3nc(-c4ccc(C(F)(F)F)cc4)cc(C(F)(F)F)n3)n2)cn1 [Example 20, 5-{5-[4-Trifluoromethyl-6-(4-trifluoromethyl-phenyl)-pyrimidin-2-yl]-[1,2,4]oxadiazol-3-yl}-pyrimidin-2-ylamine] | 216
Nc1ccc(-c2nc(-c3nc(-c4ccc(C(F)(F)F)cc4)cc(C(F)(F)F)n3)no2)cn1 [Example 21, 5-{3-[4-Trifluoromethyl-6-(4-trifluoromethyl-phenyl)-pyrimidin-2-yl]-[1,2,4]oxadiazol-5-yl}-pyridin-2-ylamine] | 205
Nc1ccc(-c2nc(-c3nc(-c4ccc(Cl)cc4)cc(C(F)(F)F)n3)no2)cn1 [Example 22, 5-{3-[4-(4-Chloro-phenyl)-6-trifluoromethyl-pyrimidin-2-yl]-[1,2,4]oxadiazol-5-yl}-pyridin-2-ylamine] | 191
NS(=O)(=O)c1ccc(-c2nc(-c3nc(-c4ccc(C(F)(F)F)cc4)cc(C(F)(F)F)n3)no2)s1 [Example 23, 5-{3-[4-Trifluoromethyl-6-(4-trifluoromethyl-phenyl)-pyrimidin-2-yl]-[1,2,4]oxadiazol-5-yl}-thiophene-2-sulfonic acid amide] | 258.5
NS(=O)(=O)c1ccc(-c2nc(-c3nc(-c4ccc(Cl)cc4)cc(C(F)(F)F)n3)no2)s1 [Example 24, 5-{3-[4-(4-Chloro-phenyl)-6-trifluoromethyl-pyrimidin-2-yl]-[1,2,4]oxadiazol-5-yl}-thiophene-2-sulfonic acid amide] | 236.5

SMILES | melting point [°C]
FC(F)(F)c1cc(-c2ccc(Cl)cc2)nc(-n2cnc(-c3ccncc3)c2)n1 [Example 25, 4-(4-Chloro-phenyl)-2-(4-pyridin-4-yl-imidazol-1-yl)-6-trifluoromethyl-pyrimidine] | 269
Nc1ccc(-c2cccc(-c3nc(-c4ccc(Cl)cc4)cc(C(F)(F)F)n3)c2)cn1 [Example 27, 5-{3-[4-(4-Chloro-phenyl)-6-trifluoromethyl-pyrimidin-2-yl]-phenyl}-pyridin-2-ylamine] | 171
FC(F)(F)c1cc(-c2ccc(Cl)cc2)nc(-c2nc(-c3ccncc3)no2)n1 [Example 28, 4-(4-Chloro-phenyl)-2-(3-pyridin-4-yl-[1,2,4]oxadiazol-5-yl)-6-trifluoromethyl-pyrimidine] | 187.5
FC(F)(F)c1cc(-c2ccc(Cl)cc2)nc(-c2nc(-c3cccnc3)no2)n1 [Example 29, 4-(4-Chloro-phenyl)-2-(3-pyridin-3-yl-[1,2,4]oxadiazol-5-yl)-6-trifluoromethyl-pyrimidine] | 168.5
Nc1ccc(-c2cc(-c3nc(-c4ccc(Cl)cc4)cc(C(F)(F)F)n3)ccn2)cn1 [Example 30, 4-[4-(4-Chloro-phenyl)-6-trifluoromethyl-pyrimidin-2-yl]-[2,3′]bipyridinyl-6′-ylamine] | 227
Nc1ccc(-c2cc(-c3nc(-c4ccc(C(F)(F)F)cc4)cc(C(F)(F)F)n3)ccn2)cn1 [Example 31, 4-[4-Trifluoromethyl-6-(4-trifluoromethyl-phenyl)-pyrimidin-2-yl]-[2,3′]bipyridinyl-6′-ylamine] | 226
Nc1ccc(-c2cn(-c3nc(-c4ccc(C(F)(F)F)cc4)cc(C(F)F)n3)cn2)cn1 [Example 32, 5-{1-[4-Difluoromethyl-6-(4-trifluoromethyl-phenyl)-pyrimidin-2-yl]-1H-imidazol-4-yl}-pyridin-2-ylamine] | 253.5
Nc1ccc(-c2noc(-c3nc(-c4ccc(C(F)(F)F)cc4)cc(C(F)F)n3)n2)cn1 [Example 36, 5-{5-[4-Difluoromethyl-6-(4-trifluoromethyl-phenyl)-pyrimidin-2-yl]-[1,2,4]oxadiazol-3-yl}-pyridin-2-ylamine] | 219
FC(F)(F)c1ccc(-c2cc(C(F)(F)F)nc(-c3cccnc3)n2)cc1 [Example 37, 2-Pyridin-3-yl-4-trifluoromethyl-6-(4-trifluoromethyl-phenyl)-pyrimidine] | 134
FC(F)c1cc(-c2ccc(C(F)(F)F)cc2)nc(-c2ccncc2)n1 [Example 38, 4-Difluoromethyl-2-pyridin-4-yl-6-(4-trifluoromethyl-phenyl)-pyrimidine] | 132.5
NS(=O)(=O)c1cccc(-c2noc(-c3nc(-c4ccc(C(F)(F)F)cc4)cc(C(F)F)n3)n2)c1 [Example 40, 3-{5-[4-Difluoromethyl-6-(4-trifluoromethyl-phenyl)-pyrimidin-2-yl]-[1,2,4]oxadiazol-3-yl}-benzenesulfonamide] | 217.5
Nc1ccc(-c2cccc(-c3nc(-c4ccc(C(F)(F)F)cc4)cc(C(F)F)n3)c2)cn1 [Example 41, 5-{3-[4-Difluoromethyl-6-(4-trifluoromethyl-phenyl)-pyrimidin-2-yl]-phenyl}-pyridin-2-ylamine] | 191
Cc1cc(-c2ccc(Cl)cc2)nc(-n2cnc(-c3ccc(N)nc3)c2)n1 [Example 43, 5-{1-[4-(4-Chloro-phenyl)-6-methyl-pyrimidin-2-yl]-1H-imidazol-4-yl}-pyridin-2-ylamine] | 206 to 208
Cc1cc(-c2ccc(Cl)cc2)nc(-n2cnc(-c3cccnc3)c2)n1 [Example 44, 4-(4-Chloro-phenyl)-6-methyl-2-(4-pyridin-3-yl-imidazol-1-yl)-pyrimidine] | 179 to 181
Cc1cc(-c2ccc(Cl)cc2)nc(-n2cnc(-c3cnc(N)nc3)c2)n1 [Example 45, 5-{1-[4-(4-Chloro-phenyl)-6-methyl-pyrimidin-2-yl]-1H-imidazol-4-yl}-pyrimidin-2-ylamine] | 264 to 266
Cc1cc(-c2ccc(C(F)(F)F)cc2)nc(-n2cnc(-c3ccc(N)nc3)c2)n1 [Example 46, 5-{1-[4-Methyl-6-(4-trifluoromethyl-phenyl)-pyrimidin-2-yl]-1H-imidazol-4-yl}-pyridin-2-ylamine] | 230 to 232
Cc1cc(-c2ccc(C(F)(F)F)cc2)nc(-n2cnc(-c3cnc(N)nc3)c2)n1 [Example 47, 5-{1-[4-Methyl-6-(4-trifluoromethyl-phenyl)-pyrimidin-2-yl]-1H-imidazol-4-yl}-pyrimidin-2-ylamine] | 267 to 269
Cc1cc(-c2ccc(C(F)(F)F)cc2)nc(-n2cnc(-c3cccnc3)c2)n1 [Example 48, 4-Methyl-2-(4-pyridin-3-yl-imidazol-1-yl)-6-(4-trifluoromethyl-phenyl)-pyrimidine] | 208 to 210
